Source: publication PMC6014988, “Precision therapeutic targeting of human cancer cell motility” (Nature Communications, 2018)

How the values were obtained:
[1] = system: protein phosphorylation in PC3-M and PC3 cells; assay: KinomeView phospho-motif antibody screen; type: cell-based, human; settings: 10 µM, 3 days, ± TGFβ
Description: The Kinoview™ and PhosphoScan™ assays were performed by Cell Signaling Technology Inc.
Supplementary Figure 10. Proteomic analysis of the effects of KBU2046 on the kinome. (a-c) Screening for effects on the kinome. PC3-M cells were pre-treated with 10 µM KBU2046, genistein or vehicle control for 3 days, then with ± TGFβ, as indicated. Resultant cell lysate, as well as lysate from tumors from mice treated with 150 mg/kg KBU2046 or control mice (from manuscript Figure 2a), were then probed with the KinomeView® panel of antibodies by Western blot. In instances where KBU2046 was inhibiting protein phosphorylation in cells and in tumors, a repeat experiment of PC3-M cells was conducted (Experiment #2). In addition to including PC3-M cells, as in Experiment #1, Experiment #2 expanded to examine effects on PC3 cells. (a) The identification of an 83 kDa band of interest (red arrows). This constitutes the only change […]
as in tumor tissue. […] (c) All […]
other Western blots of phospho-motif antibodies that were evaluated on initial screen. NI = tumor not informative; this denotes a tumor sample that yielded an abnormal coomassie blue staining pattern. Data from this sample was therefore not considered further.
(also on this page, place not known: cat #C32G12; tPE cat #2981; sRXY, FXs NI NI cat #2351; tXR cat #23C8D12; RXRXX(s/t) NI NI)
(1 picture or pasted object on this page, not shown here)

[2] = molecular target: T1, client kinase binding to CDC37/HSP90β heterocomplexes in HEK293T cells (Homo sapiens, UniProt P08238+Q16543); assay: LUMIER assay of client kinase binding; type: cell-based
T1 construct: expressed in transfected cells; host or cells: HEK293T
Description: The LUMIER assay was performed as described, using reagents generously provided by that group.
Supplementary Figures 17. KBU2046-mediated changes in the signature of client proteins bound to HSP90β/CDC37 mediate effects upon cell motility.
LUMIER assay (a). HEK293T cells stably transfected with HSP90β-luciferase were transfected with 1 of 420 different FLAG-tagged protein kinases, treated with 10 µM KBU2046 for 3 days, and LUMIER assays performed as described 12. All experiments had N = 5 vehicle treated control plus N = 5 KBU2046 treated separate wells of cells. Those yielding a t-test p value <0.05 […]
in experiment #1, or those whose values were at or below baseline, were repeated in experiment […]
hetercomplex association with KBU2046 treatment in the same direction in both experiments were selected. Of 420 kinase proteins tested, 17 (4%) met these criteria (graphically depicted in manuscript Fig. 6a). For these 17 kinases, the experiment was repeated except that HEK293T cells were treated with TGFβ for the last 24 hrs of the 3 day incubation (graphically depicted in manuscript Fig. 6b). Wound healing assay (b-d). […]

[3] = system: human cord blood CD34+ stem cells; assay: Hematopoietic stem cell colony formation assay; type: cell-based
Description: Fourteen-day colony formation assays were conducted as described by us[39], using human cord blood CD34+ stem cells (AllCells Inc.), using MethoCultExpress™ colony growth media (StemCell Technologies Inc.), performed in replicates of N = 2.

[4] = molecular target: T2, Isovaleryl-CoA dehydrogenase (Homo sapiens, UniProt P26440); assay: ProtoArray binding, Isovaleryl-CoA dehydrogenase; settings: 10 fold excess free KBU2046
T2 construct: purchased Invitrogen
Description: The ProtoArray® assay, using the Human Protein Microarray platform, was performed by Invitrogen. […]
followed by detection with FITC-streptavidin, and visualization by fluorescent microscopy (with equal exposure times). (d) Protein array hybridization. KBU2046-biotin was hybridized to ProtoArray® Human Protein Microarray’s at 0.5 and 10 µM with and without 10 fold excess free KBU2046. We first sought proteins that met the following criteria, and did so at both 0.5 and 10 µM concentrations of KBU2046-biotin (in the absence of free KBU2046): Z-Score greater than 2.5, Z-Factor greater than 0.5, CI P-value less than 0.05, negative control value <2,000 (relative fluorescence units; RFUs), and a signal/negative control signal of >10 and >5 for 10 µM and 0.5 µM conditions, respectively. This yielded 3 proteins, shown in table, for an initial hit rate of 0.03%. We then required free KBU2046 to inhibit binding by >75%. Of the two remaining candidates, we eliminated isovaleryl-CoA dehydrogenase (ICD). Its binding signal doubled on […]
suspected non-specific binding by the biotin-linker moiety. We deemed cysteine and glycine-rich protein 1 (CSRP1) our top priority protein, though its binding characteristics at 10 µM + free KBU2046 were similar to ICD, albeit not as extreme. We thus evaluated whether KBU2046- […]
There were two additional notable findings from protein array studies. […]

[5] = system: RAF1; assay: RAF1 protein expression, western blot; type: cell-based, human; settings: in cells
Description: Fig. 6 KBU2046-mediated changes in the signature of client proteins bound to the HSP90β/CDC37 heterocomplex mediate effects upon cell motility. a LUMIER assay. HEK293T cells were transfected with 1 of 420 different protein kinases, treated with 10 µM KBU2046 (N = 5 replicates) or vehicle control (N = 5) for 3 days, and LUMIER assays performed. The N = 17 kinases that gave significant findings (Student’s t-test <0.05) in the same direction in each of two separate experiments are depicted. […] All experiments were repeated at separate times at least once, with similar results
Western blots were performed as described by us[32]. All western blots were repeated at least once. Uncropped scans of the most important blots are depicted in Supplementary Fig. 19.

T1 sequence (P08238 whole entry): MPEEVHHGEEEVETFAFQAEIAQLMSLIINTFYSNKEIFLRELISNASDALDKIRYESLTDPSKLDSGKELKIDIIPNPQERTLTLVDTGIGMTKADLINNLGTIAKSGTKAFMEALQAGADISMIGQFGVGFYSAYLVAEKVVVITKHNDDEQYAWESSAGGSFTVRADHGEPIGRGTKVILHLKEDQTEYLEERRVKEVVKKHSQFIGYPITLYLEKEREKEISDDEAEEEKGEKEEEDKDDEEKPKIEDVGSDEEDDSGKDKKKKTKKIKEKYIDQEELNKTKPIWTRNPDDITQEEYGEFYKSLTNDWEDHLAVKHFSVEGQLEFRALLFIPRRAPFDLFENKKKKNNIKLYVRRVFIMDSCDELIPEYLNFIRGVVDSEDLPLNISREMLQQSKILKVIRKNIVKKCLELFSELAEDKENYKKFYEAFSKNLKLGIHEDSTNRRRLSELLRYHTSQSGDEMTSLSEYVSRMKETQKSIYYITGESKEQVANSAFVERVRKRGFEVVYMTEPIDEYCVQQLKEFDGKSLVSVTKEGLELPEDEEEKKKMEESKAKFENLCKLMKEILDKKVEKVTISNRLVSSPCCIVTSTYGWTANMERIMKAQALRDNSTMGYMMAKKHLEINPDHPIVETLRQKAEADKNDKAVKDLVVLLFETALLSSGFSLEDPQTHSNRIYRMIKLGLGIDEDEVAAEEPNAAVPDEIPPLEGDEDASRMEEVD
T1 sequence (Q16543 whole entry): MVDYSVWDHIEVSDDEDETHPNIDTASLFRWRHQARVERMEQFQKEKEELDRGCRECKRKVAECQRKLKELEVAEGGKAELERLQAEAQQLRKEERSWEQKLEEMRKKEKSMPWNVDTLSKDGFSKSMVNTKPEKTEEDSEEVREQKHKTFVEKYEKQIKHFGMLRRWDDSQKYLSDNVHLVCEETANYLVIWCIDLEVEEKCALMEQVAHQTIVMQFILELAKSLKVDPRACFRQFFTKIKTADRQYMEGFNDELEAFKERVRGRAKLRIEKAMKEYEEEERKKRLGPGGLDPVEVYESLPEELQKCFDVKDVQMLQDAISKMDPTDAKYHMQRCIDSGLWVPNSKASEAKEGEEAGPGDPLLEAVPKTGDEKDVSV
T2 sequence (P26440 33-426): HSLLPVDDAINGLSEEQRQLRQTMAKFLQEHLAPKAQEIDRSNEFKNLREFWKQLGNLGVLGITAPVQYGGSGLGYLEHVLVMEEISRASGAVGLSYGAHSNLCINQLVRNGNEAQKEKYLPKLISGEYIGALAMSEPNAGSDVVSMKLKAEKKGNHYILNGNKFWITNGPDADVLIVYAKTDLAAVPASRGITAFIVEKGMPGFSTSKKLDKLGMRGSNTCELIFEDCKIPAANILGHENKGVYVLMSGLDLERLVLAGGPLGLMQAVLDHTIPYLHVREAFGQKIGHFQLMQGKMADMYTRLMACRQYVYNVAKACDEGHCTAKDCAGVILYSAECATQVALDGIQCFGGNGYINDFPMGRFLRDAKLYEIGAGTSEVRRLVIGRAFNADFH

## O=C1c2ccccc2OCC1c1ccc(F)cc1 (racemic) [KBU2046, (±)-3(4-fluorophenyl)chroman-4-one]
[1]
  changes in protein phosphorylation: only a single change
[2]; 10 µM, 3 days
  number of kinases with decreased binding: 7
  number of kinases with increased binding: 10
[2]; TGFβ-treated cells
  RAF1 binding to complexes: decreased binding
  RIPK1 binding to complexes: decreased
  SGK3 binding to complexes: increased
[2]; as stated in rebuttal letter
  share of client proteins with affected binding: 1%
[2]; in cells
  CK2 binding to the HSP90β/CDC37 heterocomplex: not alter the binding of CK2
[2]; of 420 kinase proteins screened
  share of kinases with significantly changed binding: 4%
[2]; of 420 kinase proteins screened, 10 µM, 3 days
  number of kinases with significantly changed binding: 17
[3]; 14 days
  toxicity to human bone marrow stem cells: not toxic
[3]; up to 40 micromolar for 14 days
  toxicity to stem cells: no toxicity
[4]; 0.5 uM KBU2046-biotin
  % inhibition by competitor: 80%
[4]; 10 uM KBU2046-biotin
  % inhibition by competitor: 12%
[5]
  RAF1 protein expression levels: did not alter RAF1 protein expression levels
